Assay results as given in patent US10752615B2, “Spirocyclic containing compounds and pharmaceutical uses thereof” (GB005, Inc., priority 2016, dated 2020).

How the values were obtained:
[1] = test system: PBMC stimulated with anti-CD3 and anti-CD28 antibodies; experiment: CD3/CD28 mediated PBMC proliferation assay; conditions: Homo sapiens, 72 h, read-out: CD3/CD28 PMBC proliferation IC50 (nM)
Description: Individual wells of 96 well tissue culture plates were coated with 50 μL of 5 μg/mL anti-CD3 (OKT3, eBiosciences) overnight at 4° C. Human blood was collected in EDTA containing vacutainer tubes. […] The cells were placed in a humidified 37° C. incubator for 72 hours. Controls included unstimulated cells and media alone.

BTK = BTK (Homo sapiens (Human), UniProt Q06187); experiment: Kinase inhibition assay (Nanosyn, microfluidic detection), BTK; format: biochemical; conditions: 1 mM ATP, 3 hours at 25° C.
Chain of BTK (Q06187 whole entry): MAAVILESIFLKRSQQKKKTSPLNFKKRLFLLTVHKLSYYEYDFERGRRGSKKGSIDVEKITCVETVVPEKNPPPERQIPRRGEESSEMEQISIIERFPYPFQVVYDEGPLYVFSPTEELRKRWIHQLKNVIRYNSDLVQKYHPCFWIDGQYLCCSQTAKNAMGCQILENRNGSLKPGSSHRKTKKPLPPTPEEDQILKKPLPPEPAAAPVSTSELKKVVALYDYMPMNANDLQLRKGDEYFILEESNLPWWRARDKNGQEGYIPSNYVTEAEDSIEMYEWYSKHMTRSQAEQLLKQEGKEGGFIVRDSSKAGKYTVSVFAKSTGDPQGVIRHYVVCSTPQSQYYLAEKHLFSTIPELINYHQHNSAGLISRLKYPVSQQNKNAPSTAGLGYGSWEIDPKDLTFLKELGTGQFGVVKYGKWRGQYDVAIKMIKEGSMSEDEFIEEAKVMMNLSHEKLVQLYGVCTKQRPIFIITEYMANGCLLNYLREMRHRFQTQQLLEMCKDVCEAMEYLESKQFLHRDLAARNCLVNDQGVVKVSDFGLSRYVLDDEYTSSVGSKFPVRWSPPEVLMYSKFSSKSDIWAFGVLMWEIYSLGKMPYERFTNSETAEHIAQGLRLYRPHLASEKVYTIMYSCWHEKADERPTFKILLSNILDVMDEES

[2] = test system: experimental autoimmune encephalomyelitis (EAE); experiment: Experimental autoimmune encephalomyelitis (EAE) model of multiple sclerosis; format: in vivo, female C57BL/6 mice; conditions: oral gavage once daily, 30 mg/kg
Description: TEC kinases play important roles in immune cells and pathogenic microglia in multiple sclerosis. The efficacy of compound 16 was evaluated in experimental autoimmune encephalomyelitis (EAE), a mouse model of multiple sclerosis. […] A group of ten naïve C57BL/6 mice was maintained as a negative control. […] Mouse is not alert. 5.0—Death or severe paralysis resulting in euthanasia.

TXK = TXK (Homo sapiens (Human), UniProt P42681); experiment: Kinase inhibition assay (Nanosyn, microfluidic detection), TXK; format: biochemical; conditions: 1 mM ATP, 3 hours at 25° C.
Chain of TXK (P42681 whole entry): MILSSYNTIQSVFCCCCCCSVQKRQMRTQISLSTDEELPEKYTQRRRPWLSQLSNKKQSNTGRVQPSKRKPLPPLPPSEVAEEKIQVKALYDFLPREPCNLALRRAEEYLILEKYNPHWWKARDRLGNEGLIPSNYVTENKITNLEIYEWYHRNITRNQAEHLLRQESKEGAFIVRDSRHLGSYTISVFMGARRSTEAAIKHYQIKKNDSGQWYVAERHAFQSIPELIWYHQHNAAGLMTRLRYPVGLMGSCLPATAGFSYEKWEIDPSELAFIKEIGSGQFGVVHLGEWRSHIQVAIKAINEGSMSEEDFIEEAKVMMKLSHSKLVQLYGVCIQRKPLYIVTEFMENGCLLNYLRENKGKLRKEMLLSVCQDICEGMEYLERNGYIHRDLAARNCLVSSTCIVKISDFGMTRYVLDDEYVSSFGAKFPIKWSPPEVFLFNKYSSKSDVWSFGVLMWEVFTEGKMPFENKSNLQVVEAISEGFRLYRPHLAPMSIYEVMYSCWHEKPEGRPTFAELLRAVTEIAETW

| SMILES | IC50 [1] [nM] | IC50 (BTK) [nM] | IC50 (TXK) [nM] | other results |
| --- | --- | --- | --- | --- |
| C=CC(=O)N1CC[C@]2(C1)C[C@@H](n1c(NC(=O)c3cnc(C(C)C)s3)nc3cc(CN[C@@H](C)C(C)(C)C)ccc31)C2 [Compound 11] | > 300 | – | – | – |
| C=CC(=O)N1CC[C@]2(C1)C[C@H](n1c(NC(=O)c3ccc(-c4cnco4)s3)nc3ccccc31)C2 [Compound 16] | – | 0.94 | – | disease severity (EAE score) ([2]; in PEG 400, treated after onset of symptoms, mice): greatly attenuated; symptoms of neurological deficit ([2]; versus vehicle treated animals that rapidly progressed): minimal symptoms |
| C=CC(=O)N1CC[C@]2(C1)C[C@@H](n1c(NC(=O)c3ccc(-c4cnco4)s3)nc3c(OC)cccc31)C2 [Compound 88] | > 300 | – | – | – |
| C=CC(=O)N1CC[C@]2(C1)C[C@H](n1c(NC(=O)c3cc4c(s3)CCCC4)nc3ccccc31)C2 [Compound 80] | > 300 | – | – | – |
| C=CC(=O)N1CC[C@]2(C1)C[C@H](n1c(NC(=O)c3ccno3)nc3ccccc31)C2 [Compound 45] | 60.3 | – | – | – |
| C=CC(=O)N1CC[C@]2(C1)C[C@H](n1c(NC(=O)c3ccc(NC(=O)C4CCOCC4)s3)nc3ccccc31)C2 [Compound 112] | > 300 | – | – | – |
| C=CC(=O)N1CC[C@]2(C1)C[C@H](n1c(NC(=O)c3cc4ccccc4s3)nc3ccccc31)C2 [Compound 81] | > 300 | – | – | – |
| C=CC(=O)N1CC[C@]2(C1)C[C@@H](n1c(NC(=O)c3ccc(-c4cnco4)s3)nc3ccc(CO)cc31)C2 [Compound 78] | – | 11.7 | 2.34 | – |
| C=CC(=O)N1CC[C@]2(C1)C[C@@H](n1c(NC(=O)c3ccc(-c4cnco4)s3)nc3c(Cl)cccc31)C2 [Compound 72] | > 300 | – | – | – |
| C=CC(=O)N1CC[C@]2(C1)C[C@H](n1c(NC(=O)c3ccc(-c4c[nH]nc4C)s3)nc3ccccc31)C2 [Compound 156] | – | 0.7 | 0.24 | – |
| C=CC(=O)N1CC[C@]2(C1)C[C@H](n1c(NC(=O)c3ccc(-c4cnn(C)c4)s3)nc3ccccc31)C2 [Compound 113] | – | 4.63 | 1.32 | – |
| C=CC(=O)N1CC[C@]2(C1)C[C@H](n1c(NC(=O)c3ccc(-c4cnco4)s3)nc3cc(N(C)C(=O)C4CCCCC4)ccc31)C2 [Compound 60] | – | 1.15 | 0.4 | – |
| C=CC(=O)N1CCC2(CC1)CC(n1c(NC(=O)c3ccc(C(F)F)s3)nc3cc(CN[C@@H](C)C(C)(C)C)ccc31)C2 [Compound 12] | > 300 | – | – | – |
| C=CC(=O)N1CC[C@]2(C1)C[C@H](n1c(NC(=O)c3ccc(-c4ccnnc4)s3)nc3ccccc31)C2 [Compound 114] | – | 3.31 | 0.22 | – |
| C=CC(=O)N1CC[C@]2(C1)C[C@H](n1c(NC(=O)c3ccc(-c4ccccc4)nc3)nc3cc(CN[C@@H](C)C(C)(C)C)ccc31)C2 [Compound 33] | – | 0.78 | 0.32 | – |
| C=CC(=O)N1CC[C@]2(C1)C[C@H](n1c(NC(=O)c3ccc(-c4ccncc4)s3)nc3ccccc31)C2 [Compound 110] | – | 1.11 | 0.18 | – |
| C=CC(=O)N1CC[C@]2(C1)C[C@H](n1c(NC(=O)c3ccc(Oc4ccccc4)nc3)nc3ccccc31)C2 [Compound 66] | – | 11.2 | 4.34 | – |
| C=CC(=O)N1CC[C@]2(C1)C[C@H](n1c(NC(=O)c3ccc(-c4ccccn4)s3)nc3ccccc31)C2 [Compound 74] | – | 25.8 | 1.62 | – |
| C=CC(=O)N1CC[C@]2(C1)C[C@H](n1c(NC(=O)c3ccc(C(=O)O)s3)nc3ccccc31)C2 [Compound 100] | > 300 | – | – | – |
| C=CC(=O)N1CC[C@]2(C1)C[C@H](n1c(NC(=O)c3ccc(-c4cnco4)s3)nc3c(Cl)cccc31)C2 [Compound 64] | – | 124 | 39.7 | – |
| C=CC(=O)N1CC[C@]2(C1)C[C@H](n1c(NC(=O)c3cnco3)nc3cc(CN[C@@H](C)C(C)(C)C)ccc31)C2 [Compound 6] | – | 4.28 | 2.86 | – |
| C=CC(=O)N1CC[C@]2(C1)C[C@H](n1c(NC(=O)c3ccc(-c4ccc(N)nc4)s3)nc3ccccc31)C2 [Compound 31] | – | 5.38 | 1.03 | – |
| C=CC(=O)N1CC[C@]2(C1)C[C@H](n1c(NC(=O)c3ccc(-c4cc[nH]c(=O)c4)s3)nc3cc(CO)ccc31)C2 [Compound 29] | – | 0.84 | 0.27 | – |
| C=CC(=O)N1CC[C@]2(C1)C[C@H](n1c(NC(=O)c3ccc(=O)[nH]c3)nc3ccccc31)C2 [Compound 83] | – | 7.55 | 1.98 | – |
